Series [1] in a line: Rat liver microsomes stability. The note with it: Remaining Percentage after 60 min. On the technique in general: Liver microsomes are vesicles of endoplasmic reticulum, rich in cytochrome P450 enzymes.
Procedure: (§1) The concentrations of parent compounds in reaction systems were evaluated by LC-MS/MS for estimating the stability in pooled human, male rat and male mouse liver microsomes. The in vitro intrinsic clearances of test compounds were determined as well. Protocol
(§2) A master solution in the “Incubation Plate” containing phosphate buffer, ultra-pure H2O, MgCl2 solution and liver microsomes was made according to Table 6. The mixture was pre-warmed at 37° C. water bath for 5 minutes.
(§3) The reaction was started with the addition of 4 μL of 200 μM exemplary test compounds of the application or control compounds to each master solution to get the final concentration of 2 μM. This study was performed in duplicate.
(§4) Aliquots of 50 μL were taken from the reaction solution at 0, 15, 30, 45 and 60 minutes. The reaction solutions were stopped by the addition of 4 volumes of cold methanol with IS (100 nM alprazolam, 200 nM imipramine, 200 nM labetalol and 2 μM ketoprofen). Samples were centrifuged at 3,220 g for 40 minutes. Aliquot of 90 μL of the supernatant was mixed with 90 μL of ultra-pure H2O and then was used for LC-MS/MS analysis.
(§5) All calculations were carried out using Microsoft Excel. Peak area ratios of test compound to internal standard (listed in the below table) were determined from extracted ion chromatograms.
(§6) All calculations were carried out using Microsoft Excel. Peak areas were determined from extracted ion chromatograms. The slope value, k, was determined by linear regression of the natural logarithm of the remaining percentage of the parent drug vs. incubation time curve.
(§7) The in vitro half-life (in vitro t½) was determined from the slope value:
(§8) Conversion of the in vitro t½ (min) into the in vitro intrinsic clearance (in vitro CLint, in μL/min/mg proteins) was done using the following equation (mean of duplicate determinations):
A further series is described as follows: in vitro. The settings on record: human, liver microsomes, Remaining Percentage after 60 min, human liver microsomes, without cofactors.
Series [2] is described as follows: Mouse liver microsomes stability. The note with it: Remaining Percentage after 60 min.
Procedure: as §1, §2, §3, §4, §5, §6, §7, §8
The next series deals with Caco-2 cell monolayers. Briefly: Intestinal mucosal permeation using Caco-2 cell monolayers. The note with it: for Efflux ratio: Papp (B→A) / Papp (A→B); for Efflux ratio / Percentage recovery A→B / Percentage recovery B→A: 120 min, 5 µM; for Papp A→B / Percentage recovery A→B: apical to basolateral; for Papp A→B / Papp B→A: 5 μM, 37° C., 2 hours, pH 7.4; for Papp B→A / Percentage recovery B→A: basolateral to apical. A general note: Passage across Caco-2 layers is used to estimate intestinal permeability.

A further series relates to 5-HT2 receptor. The note with it: rat brain, daily administration; cited from earlier work.
The conditions of series [3]: EEG during sleep; cited from earlier work.
The subject of series [4] is brain's default mode network. The note with it: humans, intravenous; cited from earlier work.
For series [5] the following is noted: patients; psilocybin-assisted psychotherapy or supportive setting; cited from earlier work.

“Also recorded” adds a separate entry of the source.

Procedure for Caco-2 cell monolayers: The Caco-2 cell culture medium was prepared consisting of Dulbecco's Modified Eagle's Medium (DMEM) with high glucose and L-glutamine supplemented with 10% FBS, 1× penicillin-streptomycin mixture and 1× non-essential amino acids (NEAA). • 2. The 50 μL of culture medium was added to each well of the Transwell insert. Transwell insert was removed from reservoir and 25 mL of culture medium was added. • 3. Incubated at 37° C., 5% CO2 for 1 hour. Plates were ready for cell seeding. • 4. The cells were cultivated in T-75 flasks in a cell culture incubator set at 37° C., 5% CO2, 95% relative humidity. The cells were allowed to reach 80-90% confluence before detaching and splitting. • 5. The cultivated cells were rinsed in T-75 flasks with 5 mL PBS. Aspirated off, 1.5 mL trypsin/EDTA was added, and incubated at 37° C. for approximately 5 to 10 minutes or until the cells detach and float. Trypsin/EDTA was inactivated by adding excess serum containing medium. • 6. The cell suspension was moved to a conical tube and cells were pelleted by centrifugation at 120×g for 10 minutes. • 7. The cells were resuspended in seeding medium at a density of 6.86×10^5 cells/mL. This cell concentration can be used to seed 2.40×10^5 cells/cm^2. […] Seeding and Feeding of Caco-2 Cells in Transwell Plates • 1. 50 μL of above cell suspension was added to each well of a previously prepared Transwell plate. • 2. The plate was incubated for 14-18 days. The medium was replaced every other day, beginning no sooner than 48 hours after initial plating. • 3. The procedure for medium changes was as follows. The plate was removed from incubator and placed in hood. The medium was aspirated from reservoir and each Transwell insert. 75 μL of culture medium was added to each well of Transwell inserts and 25 mL of culture medium was added to reservoir tray. The plate was returned to incubator.
When the 14-day Caco-2 cultured cells have reached confluence and are differentiated, they were ready to be used for transport studies. • 2. The medium was removed from reservoir and Transwell inserts. • 3. 75 μL of pre-warmed culture medium was added to each transwell insert and 25 mL of reservoir tray. • 4. The electrical resistance across the monolayer was measured using automated tissue resistance measuring system (World Precision Instruments, Sarasota, FL). • 5. The electrical resistance was recorded for each well. • 6. Once all wells were measured, the plate was returned to incubator. • 7. TEER of each well was calculated by the equation below. The TEER value of each well should be greater than 230 ohms-cm^2. TEER measurement (ohms)×Area of membrane (cm^2)=TEER value (ohm-cm^2)
The Caco-2 plate was removed from the incubator. Next, the monolayer was washed, and the volume exchanged two times using pre-warmed HBSS (10 mM HEPES, pH 7.4). Then the plate was incubated for 30 minutes at 37° C. • 1 mM stock solutions of control compounds and test compound(s) were prepared in DMSO and diluted with HBSS (10 mM HEPES, pH 7.4) to reach the final concentration of 5 μM. The final concentration of DMSO in the incubation system was 0.5%. Digoxin, prazosin and propranolol were used as control compounds in this assay. • 3. HBSS (10 mM HEPES, pH 7.4) was removed after 30 minutes pre-incubation. • 4. The rate of drug transport was incubated in the apical to basolateral direction. 75 μL of the control compounds and test compound was added to the Transwell insert (apical compartment). The wells were filled in the receiver plate (basolateral compartment) with 235 μL of HBSS (10 mM HEPES, pH 7.4). • 5. The rate of drug transport was determined in the basolateral to apical direction. 235 μL of the control compounds and test compound(s) was added to the receiver plate wells (basolateral compartment). The Transwell insert (apical compartment) was filled with 75 μL of HBSS (10 mM HEPES, pH 7.4). • 6. […] Incubated at 37° C. for 2 hours. • 8.
Procedure for Dog plasma stability: (§9) The stock solution of test compound was prepared in DMSO and diluted at the final concentration of 200 μM.
(§10) • a. 2.5 μL of 200 μM or 1 mM test compound or control compound solution was spiked to 497.5 μL plasma to reach a final concentration of 1 μM or 5 μM. The final concentration of organic solvents was 0.5%. The assay was performed in duplicated. • b. The reaction samples were incubated at 37° C. at approximately 60 rpm in a water bath. • c. Aliquots of 50 μL were taken from the reaction samples at 0, 30, 60, 120, 180 and 240 minutes. The reaction was stopped by the addition of 7 volumes of cold acetonitrile containing internal standards (IS: 100 nM alprazolam, 200 nM imipramine, 200 nM labetalol and 2 μM ketoprofen). • d. All samples were vortexed for 2 minutes, followed by centrifugation at 3,220 g for 30 minutes to precipitate proteins. 100 μL of the supernatant was transferred to a new plate. The supernatant was diluted with ultrapure water according to the LC-MS signal response and peak shape.
(§11) Samples were Analyzed by LC-MS/MS. • LC system: Shimadzu • MS analysis: Triple Quad™ 6500+ from AB Inc (Canada) with an ESI interface • Column temperature: 40° C. • Column: Xselect® Hss T3 2.5μ (2.1×30 mm) coupled with preguard column • Mobile phase: 0.1% formic acid in water (A) and 0.1% formic acid in acetonitrile (B)
(§12) All calculations were carried out using Microsoft Excel. Remaining percentages of parent compounds at each time point were estimated by determining the peak area ratios from extracted ion chromatograms.
Procedure for Human plasma stability: as §9, §10, §11, §12
Procedure for Mouse plasma stability: as §9, §10, §11, §12
Procedure for Rat plasma stability: as §9, §10, §11, §12
Procedure for in vitro: as §1, §2, §3, §4, §5, §6, §7, §8

For the compound `O=C(O)Cc1ccccc1Nc1c(Cl)cccc1Cl` [Diclofenac], the amount remaining at 1 h, 2 µM stood at 7.11% in series [1] (with cofactors); 97.9% in series [1] (without cofactors); 95.9% in “in vitro”; 35.9% in series [2] (with cofactors); 97.9% in series [2] (without cofactors).

Regarding `C[C@H]1O[C@@H](O[C@H]2[C@@H](O)C[C@H](O[C@H]3[C@@H](O)C[C@H](O[C@H]4CC[C@@]5(C)[C@H](CC[C@@H]6[C@@H]5C[C@@H](O)[C@]5(C)[C@@H](C7=CC(=O)OC7)CC[C@]65O)C4)O[C@@H]3C)O[C@@H]2C)C[C@H](O)[C@@H]1O` [Digoxin], in the series with Caco-2 cell monolayers, the Efflux ratio amounted to 35.38, the “Papp A→B” value was determined as 0.53 cm/s × 10^−6, the “Percentage recovery A→B” value is 86.58% and the “Papp B→A” value came out at 18.89 cm/s × 10^−6. In addition, the “Percentage recovery B→A” value with Caco-2 cell monolayers came out at 104.27%.

Regarding `CCN(CC)C(=O)[C@@H]1C=C2c3cccc4[nH]cc(c34)C[C@H]2N(C)C1` [LSD], the 5-HT2 receptor density result in the series with 5-HT2 receptor is listed as “selectively decreased 5-HT2 receptor density in the rat brain; also recorded: reduce 5-HT2 receptor density in rat brain”. In series [3], the sleep patterns result is “positively affect sleep patterns”. Besides, the oscillatory power entry in series [4] is reported as “decreases in oscillatory power in areas of the brain's default mode network”. Moreover, the “relief of depression and anxiety” value in series [5] was “significant and sustained anti-depressant and anxiolytic effects”.

Regarding `CC[C@H](C)C(=O)O[C@H]1C[C@@H](C)C=C2C=C[C@H](C)[C@H](CC[C@@H]3C[C@@H](O)CC(=O)O3)[C@H]21` [Lovastatin, reference compound], the “Remaining Percentage” value in the series “Rat plasma stability” (rat plasma, 0 min) is listed as 100.00%. In the series “Rat plasma stability” (rat, plasma), the share remaining at 0.5 h turned out to be 0%, the amount remaining at 1 h turned out to be 0%, the amount remaining at 2 h is 0% and the share remaining at 3 h stood at 0%. Further, the share remaining at 4 h in “Rat plasma stability” (rat, plasma) turned out to be 0%. Moreover, in the series “Dog plasma stability” (dog plasma, 0 min), the “Remaining Percentage” value was found to be 100.00%. Moreover, in the series “Dog plasma stability” (dog, plasma), the share remaining at 0.5 h worked out at 101%, the share remaining at 1 h turned out to be 64.8%, the fraction remaining at 2 h came out at 40.8% and the share remaining at 3 h was found to be 22.4%. Besides, the share remaining at 4 h in the series “Dog plasma stability” (dog, plasma) amounted to 11%.

For `COc1cc2nc(N3CCN(C(=O)c4ccco4)CC3)nc(N)c2cc1OC` [Prazosin], in the series on Caco-2 cell monolayers, the Efflux ratio is given as 3.28, the “Papp A→B” value stood at 10.14 cm/s × 10^−6, the “Percentage recovery A→B” value worked out at 79.47% and the “Papp B→A” value turned out to be 33.06 cm/s × 10^−6. The “Percentage recovery B→A” value in the series on Caco-2 cell monolayers was determined as 104.81%.

Compound `CC(C)[N+](C)(CCOC(=O)C1c2ccccc2Oc2ccccc21)C(C)C` [Propantheline, reference compound] gave a T1/2 in the series “Human plasma stability” (human plasma, 37° C., N.A. if no peak detected at 30 min) of 9.53 min. Besides, in the series “Human plasma stability” (human, plasma), the amount remaining at 0.5 h came out at 18.7%, the share remaining at 1 h stood at 1.28%, the share remaining at 3 h was found to be 0% and the amount remaining at 4 h is 0%. For the same compound, the “Remaining Percentage” value in “Mouse plasma stability” (mouse plasma, 0 min) is 100.00%. In addition, in the series “Mouse plasma stability” (mouse plasma, 37° C., N.A. if no peak detected at 30 min), the T1/2 was 34.36 min. In “Mouse plasma stability” (mouse, plasma), the amount remaining at 0.5 h came out at 65.3%, the share remaining at 1 h is 32.5%, the fraction remaining at 2 h came to 9.12% and the share remaining at 3 h came to 2.9%. In addition, the share remaining at 4 h in the series “Mouse plasma stability” (mouse, plasma) was 0.87%.

Turning to `CC(C)NCC(O)COc1cccc2ccccc12` (stereo not drawn) [Propranolol], in the series on Caco-2 cell monolayers, the Efflux ratio was 0.69, the “Papp A→B” value amounted to 33.5 cm/s × 10^−6, the “Percentage recovery A→B” value amounted to 91.34% and the “Papp B→A” value is recorded as 23.09 cm/s × 10^−6. Further, the “Percentage recovery B→A” value with Caco-2 cell monolayers was found to be 92.59%.

The values are drawn from patent US20260327250A1, “3-ETHYLAMINO-INDOLE DIMERS AS SEROTONERGIC AGENTS USEFUL FOR THE TREATMENT OF DISORDERS RELATED THERETO” (MINDSET PHARMA INC., priority 2022, published 2026).
